Results from ChEMBL document CHEMBL3217633, “Simplified platensimycin analogues as antibacterial agents” (2012).
In brackets after ≈: the same amount, converted by molar mass. Activity calls are given as the source filed them. No cut-off for these calls is given here.

Experiments:
[1] = tested on: Staphylococcus aureus; experiment: Antimicrobial activity against methicillin-resistant Staphylococcus aureus ATCC 43300 at 10 ug/disc after 24 hrs by disc diffusion assay; format: functional; settings: ATCC 43300, 24 h, read-out: DIZ
[2] = tested on: Staphylococcus aureus; experiment: Antimicrobial activity against methicillin-resistant Staphylococcus aureus ATCC 43300 at 1 mg/disc after 24 hrs by disc diffusion assay; format: functional
[3] = tested on: Pseudomonas aeruginosa; experiment: Antimicrobial activity against Pseudomonas aeruginosa ATCC 27853; format: functional, organism-based
[4] = tested on: Klebsiella pneumoniae; experiment: Antimicrobial activity against Klebsiella pneumoniae ATCC 13883; format: functional, organism-based
[5] = tested on: Acinetobacter baumannii; experiment: Antimicrobial activity against Acinetobacter baumannii ATCC 19606; format: functional
[6] = tested on: Staphylococcus aureus; experiment: Antimicrobial activity against vancomycin-intermediate Staphylococcus aureus ATCC 700699 after 24 hrs by broth microdilution method; format: functional; settings: ATCC 700699, 24 h
[7] = tested on: Staphylococcus aureus; experiment: Antimicrobial activity against methicillin-resistant Staphylococcus aureus ATCC 43300 after 24 hrs by broth microdilution method; format: functional; settings: ATCC 43300, 24 h
[8] = tested on: Staphylococcus aureus; experiment: Antimicrobial activity against heterogeneous vancomycin-intermediate Staphylococcus aureus ATCC 700698 after 24 hrs by broth microdilution method; format: functional; settings: ATCC 700698, 24 h

CC(=O)NC[C@H]1CN(c2ccc(N3CCOCC3)c(F)c2)C(=O)O1 [LINEZOLID]
zone of inhibition at 10 µg/disc [1]: 26 mm

O=C(O)c1ccc(O)c(NC(=O)C23CC4CC(CC(C4)C2)C3)c1O
diameter of the inhibition zone (DIZ) [2]: 11 mm
zone of inhibition at 10 µg/disc [1]: 0 mm

CCCC(=O)Nc1c(O)ccc(C(=O)O)c1O
diameter of the inhibition zone (DIZ) [2]: 20 mm
zone of inhibition at 10 µg/disc [1]: 0 mm

CC(C)(C)C(=O)Nc1c(O)ccc(C(=O)O)c1O
zone of inhibition at 10 µg/disc [1]: 0 mm

O=C(O)c1ccc(O)c(NC(=O)C2CCCCC2)c1O
zone of inhibition at 10 µg/disc [1]: 0 mm

O=C(O)c1ccc(O)c(NC(=O)C2CCCC2)c1O
diameter of the inhibition zone (DIZ) [2]: 8 mm
zone of inhibition at 10 µg/disc [1]: 0 mm

O=C(O)c1cccc(NC(=O)C2CCCC2)c1O
zone of inhibition at 10 µg/disc [1]: 0 mm

CCCC(=O)Nc1cccc(C(=O)O)c1O
zone of inhibition at 10 µg/disc [1]: 0 mm

CCC(=O)Nc1c(O)ccc(C(=O)O)c1O
zone of inhibition at 10 µg/disc [1]: 0 mm

CC(C)(C)C(=O)Nc1cccc(C(=O)O)c1O
zone of inhibition at 10 µg/disc [1]: 0 mm

CCC1(C(=O)Nc2c(O)ccc(C(=O)O)c2O)CCCCC1
diameter of the inhibition zone (DIZ) [2]: 10 mm
zone of inhibition at 10 µg/disc [1]: 0 mm

CC12CC[C@@](C(=O)Nc3c(O)ccc(C(=O)O)c3O)(OC1=O)C2(C)C
diameter of the inhibition zone (DIZ) [2]: 22 mm
zone of inhibition at 10 µg/disc [1]: 0 mm

CC(C)C(=O)Nc1cccc(C(=O)O)c1O
zone of inhibition at 10 µg/disc [1]: 0 mm

O=C(O)c1cccc(NC(=O)C23CC4CC(CC(C4)C2)C3)c1O
diameter of the inhibition zone (DIZ) [2]: 11 mm
zone of inhibition at 10 µg/disc [1]: 0 mm

CC12C[C@@]34C=CC(=O)[C@@](C)(CCC(=O)Nc5c(O)ccc(C(=O)O)c5O)C3[C@H](CC1C4)O2 (stereo partly drawn) [PLATENSIMYCIN]
Activity [3]: inactive
Activity [4]: inactive
Activity [5]: inactive
zone of inhibition at 10 µg/disc [1]: 30 mm
MIC [6]: 2 µg/mL (≈ 4.53 µM)
MIC [7]: 2 µg/mL (≈ 4.53 µM)
MIC [8]: 2 µg/mL (≈ 4.53 µM)

CC12CC[C@](C(=O)Nc3cccc(C(=O)O)c3O)(OC1=O)C2(C)C
diameter of the inhibition zone (DIZ) [2]: 14 mm
zone of inhibition at 10 µg/disc [1]: 0 mm

CCC(=O)Nc1cccc(C(=O)O)c1O
zone of inhibition at 10 µg/disc [1]: 0 mm

CC12CC[C@](C(=O)Nc3c(O)ccc(C(=O)O)c3O)(OC1=O)C2(C)C
diameter of the inhibition zone (DIZ) [2]: 38 mm
zone of inhibition at 10 µg/disc [1]: 18 mm

CC12CC[C@@](C(=O)Nc3cccc(C(=O)O)c3O)(OC1=O)C2(C)C
diameter of the inhibition zone (DIZ) [2]: 21 mm
zone of inhibition at 10 µg/disc [1]: 0 mm

O=C(O)c1cccc(NC(=O)C2CCCCC2)c1O
zone of inhibition at 10 µg/disc [1]: 0 mm

CC(C)C(=O)Nc1c(O)ccc(C(=O)O)c1O
zone of inhibition at 10 µg/disc [1]: 0 mm

CCC1(C(=O)Nc2cccc(C(=O)O)c2O)CCCCC1
diameter of the inhibition zone (DIZ) [2]: 10 mm
zone of inhibition at 10 µg/disc [1]: 0 mm
